Measurements: article PMC11785708, “Design and synthesis of new quinazolinone derivatives: investigation of antimicrobial and biofilm inhibition effects” (Molecular Diversity, 2024)
In brackets after ≈: the same amount, converted by molar mass. Several values for one entry are separate records, joined by “and”; a condition that tells them apart may be missing. Equal entries are not always repeated.

Tests used:
Candida albicans = system: Candida albicans; set-up: method as in doi:10.1002/slct.201803795; settings: read-out: anti-biofilm activity IC50; cited from earlier work
[1] = system: methicillin-resistant Staphylococcus aureus (MRSA); set-up: method as in PMID 32927027; settings: read-out: biofilm formation inhibition IC50; cited from earlier work
P. aeruginosa ATCC 27953 [2] = test: MIC determination, P. aeruginosa; type: cell-based, Pseudomonas aeruginosa; settings: serial dilutions, triplicate; for MIC: Pseudomonas aeruginosa, ATCC27953
Description: (§1) Serial dilutions of the test compounds were tested to determine their MIC against the most susceptible organisms. The MIC was expressed as the lowest concentration which inhibited the visible growth of the corresponding microorganism. All assays were performed in triplicate.

K. pneumoniae ATCC 13883 [3] = test: Agar well diffusion, K. pneumoniae; type: cell-based; settings: Klebsiella pneumoniae, ATCC13883; 100 μl of test compound 20 mg/ml in DMF; ciprofloxacin and fluconazole 30 μg/ml; 24 h; mean ± SD; read-out: diameters of inhibition zone, K. pneumoniae ATCC 13883
Description: (§2) The antimicrobial activity was tested against Gram positive bacteria: Bacillus cereus (B. cereus ATCC 6629), Bacillus subtilis (B. subtilis ATCC 6633), Staphylococcus aureus (S. aureus ATCC 6538), Gram negative bacteria: Klebsiella pneumoniae (K. pneumoniae ATCC 13883), Pseudomonas aeruginosa (P. aeruginosa ATCC 27953) and Candida albicans (C. albicans ATCC 10231). Glycerol stocks were thawed upon need and propagated into nutrient broth at 37 °C. The antibacterial activity of the compounds 9-32 was carried out in vitro using the agar well diffusion method, originally reported by […] and Bauer and coworkers and described by the National Committee for Clinical Laboratory Standards (NCCLS). Bacterial strains, adjusted at […] (equivalent to 0.5 McFarland), were used to inoculate nutrient agar plates. 9-mm diameter wells were punched into the solidified nutrient agar plates using sterile cork borer and 100 μl samples of the test compounds, dissolved in dimethyl formamide (DMF) at 20 mg/ml concentrations, were added and allowed to diffuse at 4 °C for 2 h. Subsequently, the plates were incubated overnight in an upright position at 37 °C. DMF was used as a negative control while ciprofloxacin and fluconazole (30 μg/ml) served as positive controls. After 24 h incubation, the diameters of the growth inhibition zones were recorded in mm. Data was expressed as mean ± standard deviation of three replicates.

P. aeruginosa ATCC 27953 [4] = test: Bacterial cell surface hydrophobicity (CSH) assay (MATH / BATH); type: cell-based, Pseudomonas aeruginosa; settings: increasing concentrations, toluene partition (Fig. 6)
Description: The effect of the test compounds 19 and 20 on cell surface hydrophobicity was investigated via the microbial or bacterial adherence to hydrocarbons (MATH / BATH) assay. Exponentially growing culture of P. aeruginosa ATCC 27953 incubated with or without test compounds were centrifuged, the pellets were re-suspended and OD600 was measured using UV/Vis spectrophotometer (Jasco V-630, Tokyo, Japan) to give Ao. The re-suspended cells were vigorously mixed with toluene followed by measuring the OD600 of the aqueous phase to give At. The hydrophobicity index was calculated as follows: Hydrophobicityindex=Ao-At/Ao×100

B. cereus ATCC 6629 [5] = test: MIC determination, B. cereus; type: cell-based, Bacillus cereus; settings: serial dilutions, triplicate; for MIC: Bacillus cereus, ATCC6629
Description: as §1

B. subtilis ATCC 6633 [6] = test: MIC determination, B. subtilis; type: cell-based, Bacillus subtilis; settings: serial dilutions, triplicate; for MIC: Bacillus subtilis, ATCC6633
Description: as §1

B. subtilis ATCC 6633 [7] = test: Agar well diffusion, B. subtilis; type: cell-based; settings: Bacillus subtilis, ATCC6633; 100 μl of test compound 20 mg/ml in DMF; ciprofloxacin and fluconazole 30 μg/ml; 24 h; mean ± SD; read-out: diameters of inhibition zone, B. subtilis ATCC 6633
Description: as §2

[8] = system: Pseudomonas aeruginosa ATCC 27953; test: Twitching motility assay; type: cell-based
Description: 5 µL of overnight-grown bacteria were stab-inoculated into Luria Bertani (LB) soft or quasi-solid plates containing 0.3% agar mixed with different concentrations of compounds 19, 20 and further incubated overnight in an upright position. The visible detectable distance of corrugated trails of twitching zones, away from the inoculation center at the petri dish-agar interface, was measured afterwards. The results were recorded as the average of several diameters’ measurements. DMF was used as a negative control. The experiments were performed in triplicate and represented as the mean of three measurements.

P. aeruginosa ATCC 27953 [9] = test: Inhibition of exopolysaccharide (EPS) production; type: cell-based, Pseudomonas aeruginosa; settings: means ± standard errors
Description: The inhibition of exopolysaccharide production by P. aeruginosa ATCC 27953 using quinazolinone derivatives was assessed according to total carbohydrate measurement.
P. aeruginosa’s biofilm was grown in the presence or absence of compounds (19, 20). Cells were incubated for 1 h with an equal volume of 5% (v/v) phenol and 5 × volume of concentrated sulfuric acid containing 0.2% (w/v) hydrazine sulphate then centrifuged at 10,000 g for 10 min (Z 326 K, HERMLE Labortechnik GmbH, Wehingen, Germany). The optical density of the supernatant was measured at 490 nm and the reduction in EPS was calculated as follows: EPSquantification%=OD490ofcontrol-OD490oftest/OD490ofcontrol×100

P. aeruginosa ATCC 27953 [10] = test: Biofilm inhibition assay (crystal violet); type: cell-based; settings: Pseudomonas aeruginosa, ATCC27953, P. aeruginosa ATCC 27953, 24 h
Description: Compounds with potential activity against P. aeruginosa ATCC 27953 were tested for the respective biofilm inhibition. The assay was carried out in microtiter plate setup using crystal violet (CV) staining of adherent cells, as modified from.
After 24 h cultivation, the supernatant and planktonic cells were discarded, wells were washed with phosphate buffered saline (PBS) and biofilms were stained with 0.1% CV. CV was subsequently washed then, solubilized with 33% (v/v) glacial acetic acid. The absorbance was measured at 540 nm using SPECTROstar® Nano microplate reader (BMG LABTECH GmbH, Germany). The experiments were performed in triplicate and independently repeated three times. GraphPad Prism 6.0 software was used to estimate the IC50 values, which correspond to […].

Cell viability MTT assay = type: cell-based; settings: human, BJ1 cells (normal skin fibroblasts)
Description: Cell viability testing at 5 mg/ml was carried out by colorimetric MTT assay on human normal cell line BJ1 (skin fibroblasts) to investigate the toxicity of the most broad spectrum derivatives 9, 15, 16, 18, 19, 20 and 29 (Table 3). The viability of the cells treated with the aforementioned derivatives was more than 87% at 5 mg/ml concentration. This gives indication that the compounds are tolerated and nontoxic for human cells, as the cytotoxic dose was higher than the therapeutic dose on most of microorganisms. It is worth mentioning that the safe limit of the percent of dead cells is not an absolute value and could be more than 10% as reported in previous studies.
The most broad spectrum compounds were evaluated for their cytotoxic activity against BJ1 cell line using colorimetric MTT [3-(4,5-dimethylthiazol-2-yl)-2,5-diphenyltetrazolium bromide] assay.

B. cereus ATCC 6629 [11] = test: Agar well diffusion, B. cereus; type: cell-based; settings: Bacillus cereus, ATCC6629; 100 μl of test compound 20 mg/ml in DMF; ciprofloxacin and fluconazole 30 μg/ml; 24 h; mean ± SD; read-out: diameters of inhibition zone, B. cereus ATCC 6629
Description: as §2

K. pneumoniae ATCC 13883 [12] = test: MIC determination, K. pneumoniae; type: cell-based, Klebsiella pneumoniae; settings: serial dilutions, triplicate; for MIC: Klebsiella pneumoniae, ATCC13883
Description: as §1

P. aeruginosa ATCC 27953 [13] = test: Agar well diffusion, P. aeruginosa; type: cell-based; settings: Pseudomonas aeruginosa, ATCC27953; 100 μl of test compound 20 mg/ml in DMF; ciprofloxacin and fluconazole 30 μg/ml; 24 h; mean ± SD; read-out: diameters of inhibition zone, P. aeruginosa ATCC 27953
Description: as §2

S. aureus ATCC 6538 [14] = test: MIC determination, S. aureus; type: cell-based, Staphylococcus aureus; settings: Staphylococcus aureus, ATCC6538; serial dilutions, triplicate
Description: as §1

S. aureus ATCC 6538 [15] = test: Agar well diffusion, S. aureus; type: cell-based; settings: Staphylococcus aureus, ATCC6538; 100 μl of test compound 20 mg/ml in DMF; ciprofloxacin and fluconazole 30 μg/ml; 24 h; mean ± SD; read-out: diameters of inhibition zone, S. aureus ATCC 6538
Description: as §2

| Compound | melting point [°C] | MIC (P. aeruginosa ATCC 27953 [2]) [µg/mL] | MIC, P. aeruginosa ATCC 27953 (P. aeruginosa ATCC 27953 [2]) [µg/mL] | zone of inhibition at 20000 µg/mL (K. pneumoniae ATCC 13883 [3]) [mm] | effect on hydrophobicity index (CSH) (P. aeruginosa ATCC 27953 [4]) | MIC (B. cereus ATCC 6629 [5]) [µg/mL] | MIC (B. subtilis ATCC 6633 [6]) [µg/mL] | zone of inhibition at 20000 µg/mL (B. subtilis ATCC 6633 [7]) [mm] | % EPS inhibition (P. aeruginosa ATCC 27953 [9]; 1/4 MIC) [%] | % EPS inhibition (P. aeruginosa ATCC 27953 [9]; 1 MIC) [%] | % EPS inhibition (P. aeruginosa ATCC 27953 [9]; 2 MIC) [%] | IC50 (P. aeruginosa ATCC 27953 [10]) | viability at 5 mg/ml (Cell viability MTT assay) [%] | zone of inhibition at 20000 µg/mL (B. cereus ATCC 6629 [11]) [mm] | MIC (K. pneumoniae ATCC 13883 [12]) [µg/mL] | zone of inhibition at 20000 µg/mL (P. aeruginosa ATCC 27953 [13]) [mm] | also measured |
| --- | --- | --- | --- | --- | --- | --- | --- | --- | --- | --- | --- | --- | --- | --- | --- | --- | --- |
| COc1cc(OC)c(-c2nc3ccccc3c(=O)[nH]2)c(OC)c1 [V] |  |  |  |  |  |  |  |  |  |  |  |  |  |  |  |  | IC50 (Candida albicans): < 30 µM |
| Nc1nc(-c2cccc(Br)c2)cc(-c2nc3ccccc3c(=O)[nH]2)n1 [IV] |  |  |  |  |  |  |  |  |  |  |  |  |  |  |  |  | IC50 [1]: 20.7 µM |
| COc1cc(C=Nn2c(CN3CCCC3)nc3ccccc3c2=O)cc(OC)c1OC [Compound 19, 2-(Pyrrolidin-1-ylmethyl)-3-[(3,4,5-trimethoxybenzylidene)amino]quinazolin-4(3H)-one] | 166 | 150 (≈ 355 µM) | 150 ± 60 (≈ 355 µM) | 18 ± 0.24 | no evident effect on CSH | 10000 ± 500 (≈ 23700 µM) | 1000 ± 290 (≈ 2370 µM) | 14 ± 0.31 | 54.15 ± 4.00 | 55.93 ± 3.31 | 63.79 ± 2.70 | 3.55 µM and 1.5 µg/mL | 92.3 ± 3.37 | 17 ± 0.22 | 1000 ± 290 (≈ 2370 µM) | 16 ± 0.18 | change in twitching zone diameter ([8]; highest tested concentration (= MIC)): 30% |
| O=c1c2ccccc2nc(CN2CCCC2)n1N=Cc1ccc([N+](=O)[O-])cc1 [Compound 20, 3-[(4-Nitrobenzylidene)amino]-2-(pyrrolidin-1-ylmethyl)quinazolin-4(3H)-one] | 156 | 250 (≈ 662 µM) | 250 ± 140 (≈ 662 µM) | 16 ± 0.09 | reduced hydrophobicity index | 250 (≈ 662 µM) | 500 (≈ 1320 µM) | 10 ± 0.12 | 21.51 ± 3.26 | 47.84 ± 3.00 | 61.50 ± 2.83 | 6.86 µM and 2.59 µg/mL | 88.1 ± 1.81 | 16 ± 0.07 | 500 (≈ 1320 µM) | 21 ± 0.17 | MIC, B. cereus ATCC 6629 (B. cereus ATCC 6629 [5]): 250 ± 0 µg/mL (≈ 662 µM); MIC, B. subtilis ATCC 6633 (B. subtilis ATCC 6633 [6]): 500 ± 0 µg/mL (≈ 1320 µM); effect on twitching motility ([8]; starting from sub-MIC equal to half the MIC dose): remarkably blocked; MIC (S. aureus ATCC 6538 [14]): 15000 ± 500 µg/mL (≈ 39700 µM); zone of inhibition at 20000 µg/mL (S. aureus ATCC 6538 [15]): 13 ± 0.11 mm; MIC, K. pneumoniae ATCC 13883 (K. pneumoniae ATCC 13883 [12]): 500 ± 290 µg/mL (≈ 1320 µM) |
